Laboratory results taken from patent US10254288B2, “Method for species-independent measurement of complement activation in animals” (Quidel Corporation, priority 2013, dated 2019).

What was measured:
[1] = test system: C activation in dog serum; assay: Complement activation by different activators in dog serum, pan-species C3 method; type: biochemical; details: SC5b-9 ELISA to determine SC5b-9
Protocol: Methods • The sera that were not of commercial origin were prepared from freshly drawn blood, which was let to clot at room temperature for 10-30 min, followed by centrifugation and collection of the supernatant. The serum was then stored at −80° C. until use. Zymosan (final concentration: 1.3 mg/ml) was prepared by suspending it at 2% in 0.15 M sodium chloride, boiling in a water bath for one hour, then centrifuged for 30 minutes at 4000 rpm. The supernatant was discarded and the residue suspended evenly in 0.15 M sodium chloride to 2%. • HAGG was diluted 100-fold (to a final concentration: 0.5 mg/mL). • 10 μL Zymosan (20 mg/ml) or HAGG were incubated for 1 h at 37° C. with a mixture of 20 μL animal serum, and 20 μl C3depl-NHS 100 μl PBS. The reaction was stopped by the addition of the 10 μl stop solution, and 100 μL of a 1:1600 dilution from the mixtures were applied to the wells of the SC5b-9 ELISA plates to measure the formation of SC5b-9 as specified by the manufacturer.
Materials and Methods • Dog blood was obtained from WellPet Animal Clinic (Kecskemét, Géza Fejedelem körút 51. Hungary). Serum was prepared by letting the blood clot at 4° C. for about 10 min (dog blood clots rapidly), followed by centrifugation and collection of supernatant serum. […]

[2] = test system: rat C3; assay: C3 consumption in rats in vivo, PS-C3 method in hirudinized plasma samples; details: 12.5 U/kg CVF
Protocol: Male Wistar rats (340-480 g) were anesthetized i.p. by Na-pentobarbital (Nembutal, 50 mg/kg) or thiobutabarbital (lnactin, 120 mg/kg). The left femoral artery and vein, left carotid artery, and right jugular vein were cannulated. Rats were anticoagualated with lepirudin (Refludan, 5 mg/kg), then injected i.v. with the C activator liposomes, Doxil and Ambisome. Blood samples were collected from the carotid artery at start (time 0) and at 1-3-5-10-30 min postinjection.
Similar experiments as described in Example 7, except that the rats were injected with 10 mg/kg zymosan or 12.5 U/kg CVF.
Similar experiments as described in Example 11, except that C activation was measured by Quidel's human SC5b-9 (A) and C3a kits (B). Rats were injected with 12.5 U/kg CVF.

Row | Compound | rise of SC5b-9 over PBS control [1] [fold] | human C3a in the reaction mixture (Quidel's C3a kit) [2] | time to consume essentially all C3 [2] [min] | C3 consumed ([2]; within 30 min)
1 | CCCCCCCC/C=C\CCCCCCCC(=O)OCCOCC(OCCO)C1OCC(OCCO)C1OCCO (stereo not shown) [Tween 80] | ~30 |  |  | 
2 | CVF |  | elevated | ≤ 30 | essentially all C3
